Results on three compounds are retold here after patent US6159746A, “Solid phase immunoassay to detect inhibitors of proteolytic enzymes” (Gruppo Lepetit S.p.A., priority 1994, dated 2000).

Read-outs that look alike come from different tables or passages of the source. Square brackets hold non-standard residues; d marks the D form. Peptide text beside a SMILES is read from it. * marks the point of attachment. Sta = CC(C)C[C@H](N)[C@@H](O)CC(=O)O; Isovaleryl = CC(C)CC(=O)* Where only a bound is given, the exact number is not on record here.

Common to all, as to format: biochemical
Assay [1] addresses Cathepsin D (Homo sapiens, UniProt P07339). Description: Inhibition of cathepsin D, solid phase tubulin immunoassay, Table I. As to the method: (§1) Covalent linkage of tubulin to the support
(§2) 0.150 ml of a freshly made phosfate buffered saline (PBS) solution (pH=7.3) containing 0.03 mg of bis(sulfo-succinidimyl)suberate (BS3, Pierce, Rockford, Ill.) are dispensed into each well of a cova-link 96 wells plate (Nunc). The solution is left in the wells at room temperature for 90 minutes, afterwards the wells are washed three times with PBS solution.
(§3) Afterwards, 0,150 ml of a PBS solution containing 5% glycine (v/v) and 0.75 μg of tubulin obtained according to Example 1 is added to each well. After 90 minutes at room temperature, the solution is removed and 0.3 ml of a 5% glycine PBS solution are added. After about 2 hours, the wells are washed with fresh PBS solution.
(§4) Determination of the anti-proteolytic activity
(§5) 0.15 ml of a solution containing a proteolytic activity and a known inhibitor (concentration from 0.01 to 10 μg/ml) are added to the wells treated according to Example 2 or Example 2a and incubated for 2 hours at 37° C. […]
(§6) After three rapid washing with PBS solution (pH=7.3), the inhibitory activity is determined as follows:
(§7) A YL 1/2 antibody solution (Amersham) diluted 1:1000 in PBS buffer is added to each well and incubated for 1 hour at room temperature. […] After 5-10 minutes, the reaction is stopped with H2 SO4 4 M. The colour is detected on a Titertek Multiscan MCC340-HK spectrophotometer reading the absorbance at 492 nm.

The test system of assay [2] is Subtilisin. Description: Inhibition of subtilisin, solid phase tubulin immunoassay, Table I. Particulars: subtilisin 0.25 μg/ml, 20 mM TRIS pH 7.4, 2 hours at 37° C.; inhibitor 0.01 to 10 μg/ml. Here is the method: as §1, §2, §3, §4
(§8) 0.15 ml of a solution containing a proteolytic activity and a known inhibitor (concentration from 0.01 to 10 μg/ml) are added to the wells treated according to Example 2 or Example 2a and incubated for 2 hours at 37° C.
(§9) The employed proteolytic enzymes are:
(§10) Serine class: trypsin (0.25 μg/ml), subtilisin (0.25 μg/ml), elastase (0.5 μg/ml) and cathepsin G (5 μg/ml), in a 20 mM solution of Tris-hydroxymethyl-aminomethanchloride (TRIS) (pH=7.4);
(§11) Table I reports the concentration of these inhibitors which determines a 50% inhibition of the above proteases.
as §6
(§12) A YL 1/2 antibody solution (Amersham) diluted 1:1000 in PBS buffer is added to each well and incubated for 1 hour at room temperature. After three rapid washing with PBS solution, an anti-rat peroxydated antibody solution (Amersham) diluted 1:1000 in PBS buffer is added to each well and incubated for 1 hour at room temperature. After 10-15 minutes, the colour is developed with a 0.5 M citric acid solution (pH=5.5) containing 1 mg/ml of o-phenylendiamine. After 5-10 minutes, the reaction is stopped with H2 SO4 4 M. The colour is detected on a Titertek Multiscan MCC340-HK spectrophotometer reading the absorbance at 492 nm.

The target of assay [3] is Pepsin (Sus scrofa, UniProt P00791). Description: Inhibition of pepsin, solid phase tubulin immunoassay, Table I. As to the method: as §1, §2, §3, §4, §8, §9
Aspartic class: pepsin (5 μg/ml), cathepsin D (5 μg/ml), renin (5 μg/ml) and Hiv-1 protease (5 μg/ml), in a 50 mM acetate buffer solution (pH=5.5) containing 0.01% Tween 20 (Pierce);
as §6, §12

Assay [4] deals with Elastase. Description: Inhibition of elastase, solid phase tubulin immunoassay, Table I. Particulars: elastase 0.5 μg/ml, 20 mM TRIS pH 7.4, 2 hours at 37° C.; inhibitor 0.01 to 10 μg/ml. Here is the method:
as §1, §2, §3, §4, §8, §9, §10, §11, §6, §12

Assay [5] concerns the target Papain (Carica papaya, UniProt P00784). Description: Inhibition of papain, solid phase tubulin immunoassay, Table I. The note with it: papain 0.25 μg/ml, 50 mM acetate pH 5.5, 5 mM cysteine, 2 hours at 37° C.; inhibitor 0.01 to 10 μg/ml; read-out: Concentration of inhibitor in the proteolytic solution which determines the 50% inhibition of the protease (converted). Here is the method:
as §1, §2, §3, §4, §8, §9
(§13) Cysteine class: papain (0.25 μg/ml) and cathepsin B (10 μg/ml) in a 50 mM acetate buffer solution (pH=5.5) containing 5 mM cysteine.
as §11, §6, §12

Assay [6] addresses T1, Cathepsin G (Homo sapiens, UniProt P08311).
T1 sequence (P08311 21-255): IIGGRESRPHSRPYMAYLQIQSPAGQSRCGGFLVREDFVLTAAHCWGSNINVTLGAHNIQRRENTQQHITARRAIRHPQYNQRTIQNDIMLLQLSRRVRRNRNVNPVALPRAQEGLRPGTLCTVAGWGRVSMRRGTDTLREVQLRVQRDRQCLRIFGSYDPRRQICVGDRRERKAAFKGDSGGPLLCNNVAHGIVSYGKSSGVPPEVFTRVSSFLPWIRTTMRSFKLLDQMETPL
The assay is described as follows: Inhibition of cathepsin G, solid phase tubulin immunoassay, Table I. As to the method: as §1, §2, §3, §4, §8, §9, §10, §11, §6, §12

The target in assay [7] is T2, Renin (Homo sapiens, UniProt P00797).
T2 sequence (P00797 67-406): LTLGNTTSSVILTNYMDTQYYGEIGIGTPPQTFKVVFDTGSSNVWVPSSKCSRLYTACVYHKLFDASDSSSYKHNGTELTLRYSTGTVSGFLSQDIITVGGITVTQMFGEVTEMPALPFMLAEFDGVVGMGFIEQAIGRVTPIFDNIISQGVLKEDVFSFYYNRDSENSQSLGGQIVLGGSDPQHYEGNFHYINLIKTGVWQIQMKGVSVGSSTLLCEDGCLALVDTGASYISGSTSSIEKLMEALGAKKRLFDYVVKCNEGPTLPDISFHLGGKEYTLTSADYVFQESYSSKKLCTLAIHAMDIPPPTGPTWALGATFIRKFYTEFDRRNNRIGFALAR
The assay is described as follows: Inhibition of renin, solid phase tubulin immunoassay, Table I. As to the method: as §1, §2, §3, §4, §5, §6, §7

Assay [8] deals with Trypsin. The assay is described as follows: Inhibition of trypsin, solid phase tubulin immunoassay (YL 1/2 antibody), Table I. Particulars: trypsin 0.25 μg/ml, 20 mM TRIS pH 7.4, 2 hours at 37° C.; inhibitor 0.01 to 10 μg/ml. Here is the method: as §1, §2, §3, §4, §8, §9, §10, §11, §6, §12
Assay [9] has as its target Cathepsin B (Homo sapiens, UniProt P07858). The assay is described as follows: Inhibition of cathepsin B, solid phase tubulin immunoassay, Table I. Here is the method: as §1, §2, §3, §4, §5, §6, §7
Assay [10] relates to proteases of the cysteine class. The assay is described as follows: Specificity for protease classes, solid phase tubulin immunoassay. The note with it: in words. As to the method: (§14) As mentioned above, the first step of the present assay is the contact of the supported tubulin or tubulin-like peptide with a solution containing a proteolytic activity as above described. By contacting solutions containing different proteolytic activities and a same inhibitor substance, it is possible to determine both the specificity of said inhibitor against the selected protease and the percentage of inhibition.
as §4, §8, §9, §13, §11, §6, §7

The target of assay [11] is T3, Hiv-1 protease (Human immunodeficiency virus type 1 group M subtype B, UniProt P04585).
T3 construct: Hiv-1 protease
Description: Inhibition of Hiv-1 protease, solid phase tubulin immunoassay, Table I. Here is the method:
as §1, §2, §3, §4, §5, §6, §7

In assay [12] the test system is proteases of the aspartic class. The assay is described as follows: Specificity for protease classes, solid phase tubulin immunoassay. Particulars: in words. Here is the method:
as §14, §4, §8, §9
Aspartic class: pepsin (5 μg/ml), cathepsin D (5 μg/ml), renin (5 μg/ml) and Hiv-1 protease (5 μg/ml), in a 50 mM acetate buffer solution (pH=5.5) containing 0.01% Tween 20 (Pierce); […]
as §6, §7

Assay [13] has as its target T4, Papain (Carica papaya, UniProt P00784).
T4 sequence (P00784 whole entry, looked up): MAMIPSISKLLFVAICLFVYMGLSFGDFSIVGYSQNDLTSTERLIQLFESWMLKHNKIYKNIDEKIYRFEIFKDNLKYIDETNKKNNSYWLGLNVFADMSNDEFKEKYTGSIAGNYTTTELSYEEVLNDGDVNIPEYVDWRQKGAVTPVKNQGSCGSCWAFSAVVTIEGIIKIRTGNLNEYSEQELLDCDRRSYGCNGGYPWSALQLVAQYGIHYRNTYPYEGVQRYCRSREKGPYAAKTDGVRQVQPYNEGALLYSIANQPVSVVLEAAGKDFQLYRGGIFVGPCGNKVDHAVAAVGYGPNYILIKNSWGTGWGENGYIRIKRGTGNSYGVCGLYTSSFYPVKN
Description: Inhibition of papain, solid phase tubulin immunoassay, Table I. Particulars: papain 0.25 μg/ml, 50 mM acetate pH 5.5, 5 mM cysteine, 2 hours at 37° C.; inhibitor 0.01 to 10 μg/ml. Here is the method: as §1, §2, §3, §4, §8, §9, §13, §11, §6, §12

Assay [14] concerns proteases of the serine class. The assay is described as follows: Specificity for protease classes, solid phase tubulin immunoassay. The note with it: in words. Here is the method:
as §14, §4, §8, §9
Serine class: trypsin (0.25 μg/ml), subtilisin (0.25 μg/ml), elastase (0.5 μg/ml) and cathepsin G (5 μg/ml), in a 20 mM solution of Tris-hydroxymethyl-aminomethanchloride (TRIS) (pH=7.4); […]
as §6, §7

Sequence of Pepsin (P00791 60-385): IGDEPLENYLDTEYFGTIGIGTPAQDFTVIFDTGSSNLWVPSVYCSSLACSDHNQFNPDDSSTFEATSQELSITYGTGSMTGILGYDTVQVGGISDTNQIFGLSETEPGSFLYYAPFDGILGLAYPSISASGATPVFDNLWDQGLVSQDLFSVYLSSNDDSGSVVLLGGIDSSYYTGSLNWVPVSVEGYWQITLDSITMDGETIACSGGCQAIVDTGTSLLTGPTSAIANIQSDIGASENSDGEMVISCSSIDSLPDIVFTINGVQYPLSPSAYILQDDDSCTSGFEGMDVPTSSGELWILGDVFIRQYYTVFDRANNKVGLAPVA
Sequence of Cathepsin D (P07339 65-412, species assumed): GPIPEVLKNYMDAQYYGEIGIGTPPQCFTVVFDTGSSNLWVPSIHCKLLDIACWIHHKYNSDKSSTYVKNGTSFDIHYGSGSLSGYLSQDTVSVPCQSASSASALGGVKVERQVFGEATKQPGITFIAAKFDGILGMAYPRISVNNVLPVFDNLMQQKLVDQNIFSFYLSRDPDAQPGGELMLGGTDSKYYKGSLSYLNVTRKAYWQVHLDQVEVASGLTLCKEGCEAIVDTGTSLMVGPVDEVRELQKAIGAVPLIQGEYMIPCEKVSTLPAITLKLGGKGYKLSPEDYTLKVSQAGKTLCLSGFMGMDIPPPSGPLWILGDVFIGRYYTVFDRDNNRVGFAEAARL

Consider `CC(=O)N[C@@H](CC(C)C)C(=O)N[C@@H](CC(C)C)C(=O)N[C@H](C=O)CCCNC(=N)N` [Leupeptin], for which the IC50 in assay [1] is above 23.4 µM; in [3], above 23.4 µM; in [5], 0.117 µM; in assay [6], above 23.4 µM; in assay [7], above 23.4 µM; in assay [9] it was 5.86 µM. This compound also showed an IC50 in assay [11] above 23.4 µM. The “Concentration of inhibitor in the proteolytic solution which determines the 50% inhibition of the protease” value in [2], in [4] and in assay [8] was “n.i. (no inhibition)” each time. Also, in assay [10], the “specific inhibition of proteases of the cysteine class” value was “specific inhibition”.
For the compound `CC(C)CC(=O)N[C@H](C(=O)N[C@H](C(=O)N[C@@H](CC(C)C)[C@@H](O)CC(=O)N[C@@H](C)C(=O)N[C@@H](CC(C)C)[C@@H](O)CC(=O)O)C(C)C)C(C)C` [Pepstatin] (Isovaleryl-VV[Sta]A[Sta]-OH), the “Concentration of inhibitor in the proteolytic solution which determines the 50% inhibition of the protease” value in assay [2], in assay [4] and in assay [8] was “n.i. (no inhibition)” throughout. For the same compound, in [12], the “specific inhibition of proteases of the aspartic class” value is “specific inhibitor for the proteases of the aspartic class”. The IC50 in assay [3] (50% inhibition of pepsin, under the test conditions) was around 0.02 µM; in assay [5], above 14.6 µM; in assay [6], above 14.6 µM.
As for “α-anti trypsin: inhibitor of the serine class”, the “Concentration of inhibitor in the proteolytic solution which determines the 50% inhibition of the protease” value in [1] (cathepsin D 5 μg/ml, 50 mM acetate pH 5.5, 0.01% Tween 20, 2 hours at 37° C., inhibitor 0.01 to 10 μg/ml) is “n.i. (no inhibition)”; in assay [2], 7.5 µg/mL; in assay [3] (pepsin 5 μg/ml, 50 mM acetate pH 5.5, 0.01% Tween 20, 2 hours at 37° C., inhibitor 0.01 to 10 μg/ml), “n.i. (no inhibition)”; in [4], 1.0 µg/mL; in assay [13], “n.i. (no inhibition)”; in assay [6] (cathepsin G 5 μg/ml, 20 mM TRIS pH 7.4, 2 hours at 37° C., inhibitor 0.01 to 10 μg/ml), “n.i. (no inhibition)”. Moreover, the “Concentration of inhibitor in the proteolytic solution which determines the 50% inhibition of the protease” value was “n.i. (no inhibition)” in assay [7] (renin 5 μg/ml, 50 mM acetate pH 5.5, 0.01% Tween 20, 2 hours at 37° C., inhibitor 0.01 to 10 μg/ml); 1.0 µg/mL in assay [8]; “n.i. (no inhibition)” in assay [9] (cathepsin B 10 μg/ml, 50 mM acetate pH 5.5, 5 mM cysteine, 2 hours at 37° C., inhibitor 0.01 to 10 μg/ml); “n.i. (no inhibition)” in assay [11] (Hiv-1 protease 5 μg/ml, 50 mM acetate pH 5.5, 0.01% Tween 20, 2 hours at 37° C., inhibitor 0.01 to 10 μg/ml). Further, the “specific inhibition of proteases of the serine class” value in assay [14] is “specific inhibition”.
